# Experimental data: patent publication US12031137B2, “Compositions comprising SASP modulators and senescence attenuators and uses thereof for modulating cellular senescence” (RSEM, LIMITED PARTNERSHIP, priority 2016, dated 2024)
# Key:
# [1] = biological target: T1, IRE1α's endoribonuclease activity (Mus musculus, UniProt Q9EQY0); assay: SEMA3A-driven senescence in J774 cells with IRE1α RNase inhibitor; type: cell-based
# T1 construct: endogenous in cells; host or cells: J774 (J774A.1) mouse macrophage-like cells
# Procedure: FIG. 7C: Representative confocal immunofluorescence staining of γH2AX and DAPI of J774 macrophages stimulated with SEMA3A (100 ng/mL) or vehicle for 7 days (Scale bars are 100 μm). Higher magnification views of the outlined areas are shown (Scale bars are 50 μm). Immunoblots (FIG. 7D) for the XBP1(s) (spliced isoform) and PCR (FIG. 7E) for XBP1(s) and unspliced XBP1 (u) in J774 cell lysates treated with vehicle, S3A (100 ng/ml) and/or 4μ8c (1 ng/ml) at day 7 post-treatment. FIG. 7F: RT-qPCR for levels of Pai1, II6, II1β, Tgf-β1, Tp53, Ire1α and Tnfα in J774 stimulated with SEMA3A alone or with 4μ8c. β-actin was used as a reference gene. ***P<0.0001, *P<0.005. Scale bars: 100 μm for C & G. High mag C is 50 μm. Data are presented as mean±SEM;
# To determine whether SEMA3A-driven senescence was occurring through IRE1α's kinase or RNAse activity, the selective cell-permeable coumarin o-hydroxyaldehyde pharmacological inhibitor of IRE1α's endoribonuclease activity, 4μ8c, was used. Exposure to 4μ8c (FIG. 7D) prevented SEMA3A-induced growth arrest and abrogated SEMA3A-induced senescence (data not shown). […] Ultimately, pharmacological inhibition of the endoribonuclease activity of IRE1α inhibited production of specific senescence-associated genes Vegf-a, Tgf-β1, II-1β, II-6, Pai-1, Tp53 while there is no effect on Tnf-α or IRE1α itself (FIG. 7F).
# (§1) Semi-quantitative and Real-time PCR analysis. We isolated RNA using the GenElute™ Mammalian Total RNA Miniprep Kit (Sigma) and performed a digestion with DNase I to prevent amplification of genomic DNA. We reversed transcribed the RNA using M-MLV reverse transcriptase and analyzed gene expression using SybrGreen™ in an ABI Biosystems Real-Time PCR machine. β-actin was used as a reference gene. […] We investigated the splicing of XBP-1 by incubating the XBP-1 semi-quantitative PCR product with 0.4 U/μL of PstI enzyme for 5 hrs at 37° C. followed by separation on 2.5% agarose gel.
# (§2) Western blotting. We enucleated eyes at varying time points and rapidly dissected and homogenized retinas for assessment of retinal protein levels. Protein concentration from retinal homogenate and cell lysates were assessed by BCA assay (Sigma), and then 30 μg of protein analyzed for each condition by standard SDS-PAGE technique.
# [2] = tested on: mouse model of oxygen-induced retinopathy (OIR); assay: Immunoblot and RT-qPCR of OIR retinas after intravitreal injection; type: in vivo; details: intravitreal injection at P12, P14 OIR retinas
# Description: (§3) O2-induced retinopathy. Mouse pups from different strains (C57Bl/6 WT, LyzM-Cre, LysM-Cre/IRE1^fl/fl, LysM-Cre/IRE1^+/+, IRE1^fl/fl and LysM-Cre/ROSA26EYFP^fl/fl), and their fostering mothers (CD1, Charles River) were exposed to 75% 02 from postnatal day 7 (P7) to day 12 and returned to room air. This model serves as a proxy to human ocular neovascular diseases such as ROP and diabetic retinopathy characterized by a late phase of destructive pathological angiogenesis (72, 73). Upon return to room air, hypoxia-driven neovascularization (NV) develops from P14 onwards (27). We enucleated eyes at different time points and dissected the retinas for mRNA, protein assays or flatmounting.
# as §1
# (§4) Intravitreal injections. P2, P10 or P12 C57BL/6 pups were anesthetized with 3.0% isoflurane and injected in the vitreous chamber with 0.5 μL of lentivirus (see “Lentivirus production”), recombinant SEMA3A (100 ng/μL), metformin (10 μg/μL) or Aflibercept (10 μg/uL) using a 10-μL Hamilton syringe fitted with a […] glass capillary tip. Approximately 254±11.0 ng/μL of lentivirus Sh_GFP and 323.3±15.3 ng/μL containing Sh_Sema3a, Lv.Cre (15.0 ng/mL), Lv.GFP (15.0 ng/mL) was injected. Virus titers were assessed with the p24 ELISA kit (ZeptoMetrix). The titers of the lentiviruses used were (in ng p24) LV.Sh_RNA IRE1α (8.52 ng/mL), and LV.Sh_RNA.GFP (8.47 ng/mL).
# as §2
# [3] = tested on: mouse model of oxygen-induced retinopathy (OIR); assay: SA-β-gal staining of retinas in oxygen-induced retinopathy (OIR) after intravitreal injection; type: in vivo; details: single intravitreal injection at P12, vs vehicle
# Description: as §3
# Senescence-associated β-galactosidase (SA-β-gal) assay. Senescence-associated β-galactosidase assays were carried out as described previously (57, 75)
# Quantification of SA-β-gal in vivo. Senescence-associated β-galactosidase staining in flatmount retinas or sagittal eye sections were analyzed using Image J software as described in FIG. 14.
# as §4
# [4] = tested on: mouse model of oxygen-induced retinopathy (OIR); assay: Avascular area and pre-retinal neovascularization in OIR flatmount retinas; type: in vivo
# [5] = J774 stimulated with SEMA3A alone or with 4μ8c
# [6] = intravitreal injection at P12 of OIR
# T1 sequence (Q9EQY0 21-977): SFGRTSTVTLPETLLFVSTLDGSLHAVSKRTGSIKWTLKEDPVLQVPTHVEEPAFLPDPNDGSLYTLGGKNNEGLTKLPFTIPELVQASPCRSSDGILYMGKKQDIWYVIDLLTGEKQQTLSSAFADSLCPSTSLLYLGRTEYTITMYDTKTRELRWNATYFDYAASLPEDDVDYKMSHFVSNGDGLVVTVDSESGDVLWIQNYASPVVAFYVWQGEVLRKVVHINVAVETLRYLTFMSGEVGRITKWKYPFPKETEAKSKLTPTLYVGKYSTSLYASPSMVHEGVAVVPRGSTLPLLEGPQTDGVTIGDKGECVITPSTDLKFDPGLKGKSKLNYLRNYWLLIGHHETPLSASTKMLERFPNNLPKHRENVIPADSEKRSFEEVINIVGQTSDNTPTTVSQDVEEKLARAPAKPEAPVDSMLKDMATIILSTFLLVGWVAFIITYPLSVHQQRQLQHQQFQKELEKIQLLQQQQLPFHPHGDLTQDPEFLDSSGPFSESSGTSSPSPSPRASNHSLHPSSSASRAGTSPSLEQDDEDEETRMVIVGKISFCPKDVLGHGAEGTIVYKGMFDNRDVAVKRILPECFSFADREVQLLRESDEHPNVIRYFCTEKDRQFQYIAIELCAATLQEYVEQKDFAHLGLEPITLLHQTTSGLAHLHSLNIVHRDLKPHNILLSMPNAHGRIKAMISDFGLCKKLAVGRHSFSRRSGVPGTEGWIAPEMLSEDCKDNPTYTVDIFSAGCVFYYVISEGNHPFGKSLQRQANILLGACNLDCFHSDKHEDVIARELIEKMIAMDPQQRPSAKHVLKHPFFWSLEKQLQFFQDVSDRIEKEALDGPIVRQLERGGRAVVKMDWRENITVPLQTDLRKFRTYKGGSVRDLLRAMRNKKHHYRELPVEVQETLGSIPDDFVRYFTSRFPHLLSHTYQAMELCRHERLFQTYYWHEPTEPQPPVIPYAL
Molecule,"SEMA3A-mediated splicing and activation of XBP1 ([1]; J774, S3A 100 ng/ml, 4μ8c 1 ng/ml, day 7)","SEMA3A-induced growth arrest ([1]; J774 cells, data not shown)","SEMA3A-induced senescence ([1]; J774 cells, data not shown)","Tnf-α or IRE1α expression (RT-qPCR) [1, 5]","production of senescence-associated genes Vegf-a, Tgf-β1, Il-1β, Il-6, Pai-1, Tp53 (RT-qPCR) [1, 5]","drivers of senescence (Cdkn2a, Tp53, Il1β, Tgf-β1, Sema3a RT-qPCR) [2]",SA-β-gal staining at P14 OIR [3],SA-β-gal staining at P17 OIR (cellular senescence) [3],"pathological neovascularization at P17 OIR ([4]; intravitreal injection at P12, vs vehicle)","rates of vascular regeneration at P14 [4, 6]","rates of vascular regeneration at P17 [4, 6]"
Cc1cc(=O)oc2c(C=O)c(O)ccc12 [Trap 4μ8c],prevented,prevented,abrogated,no effect,inhibited,,,,,,
Aflibercept: recombinant fusion protein made-up of the extracellular domains of human VEGF receptors 1 and 2 and an Fc portion,,,,,,does not modulate,did not significantly influence,did not significantly influence,marked decrease,does not modulate,does not modulate
